Laboratory results as given in patent publication US20260022094A1, “Compounds for the Treatment of Neurodegenerative Diseases” (Celgene Corporation, priority 2022, published 2026).

These compounds were tested against T1, S1P5 receptors (Homo sapiens, UniProt Q9H228) (assay: [35S]-GTPγS binding assay on CHO-S1P5 membranes (S1P5 agonism)). Settings: membranes of CHO cells expressing recombinant S1P5; measure of S1P5 agonism.
T1 construct: expressed in transfected cells; host or cells: CHO cells (membranes)
Format: biochemical
Description: CHO cells expressing recombinant S1P5 receptors were cultured in 500 cm^2 culture trays and, once confluent, rinsed and detached with cell-lifting buffer (10 mM HEPES, 154 mM NaCl, 6.85 mM EDTA, pH 7.4). Cells were then pelleted by centrifugation, resuspended, and homogenized in membrane preparation buffer (10 mM HEPES and 10 mM EDTA, pH 7.4) using a Polytron PT 1200E homogenizer (Kinematica, Luzern, Switzerland). Cellular proteins were pelleted by centrifugation at 48,000×g at 4° C. for 30 minutes. The resulting supernatant was discarded, and the pellet was re-suspended again in membrane preparation buffer, homogenized for a second time, and then centrifuged again as described above. The final cellular protein pellet was suspended in ice cold resuspension buffer (10 mM HEPES and 0.1 mM EDTA, pH 7.4), divided into aliquots, and stored at −80° C. until use.
Functional binding assays for [^35S]-GTPγS were performed in 96-well non-binding surface plates with a final volume of 200 μL. The test compounds were serially diluted in DMSO and added to assay plates using a Tecan D300E digital printer with a total volume of 0.4 μL. The control sphingosine-1-phosphate (SIP) was prepared separately by preparing a 400 µM stock solution from a 100 nmol pellet of S1P in 10 mM Na2CO3 with 2% β-cyclodextrin. The serial dilution of S1P was done using complete assay buffer (20 mM HEPES, 10 mM MgCl2, 100 mM NaCl, 1 mM EDTA, 0.1% fatty acid free bovine serum albumin (BSA), and 30 μg/mL saponin, pH 7.4) and transferred to wells already containing 0.4 μL DMSO. All the wells were then loaded to a total volume of 40 μL of complete assay buffer, except the non-specific binding (NSB) wells. For NSB wells, 40 μL/well of 50 μM GTPγS (Sigma Aldrich, cat #G8634, St. Louis, MO) was added to wells containing 0.4 μL of DMSO. The assay was started by the addition of 120 μL/well of CHO-SIP receptor membrane solution containing 40 μg/mL of membrane protein, 16.67 μM guanosine diphosphate (GDP; Sigma Aldrich, cat #G7127, St. Louis, MO), and 2.5 mg/mL of WGA PVT SPA beads in complete buffer. Assay plates were then sealed and incubated at room temperature with gentle agitation for 30 minutes. Next, 40 μL/well of 1 nM of [^35S]-GTPγS (PerkinElmer, cat #NEG030X^250UC, Waltham, MA) in basic assay buffer (20 mM HEPES, 10 mM MgCl2, 100 mM NaCl, and 1 mM EDTA, pH7.4) was added to the assay plates to yield a final concentration of […] and the plates were further incubated for 40 minutes at room temperature with gentle agitation. The assay was terminated by centrifugation of the plates at 1000 rpm for 3 minutes using an Eppendorf 5810R centrifuge (Eppendorf, Hamburg, Germany) and G protein bound radioactivity was quantitated using a MicroBeta2 microplate scintillation counter (PerkinElmer, Waltham, MA). As G protein bound radioactivity directly correlates to receptor activation and coupling to the G protein, this assay is a measure of S1P5 agonism.

T1 sequence (Q9H228 whole entry): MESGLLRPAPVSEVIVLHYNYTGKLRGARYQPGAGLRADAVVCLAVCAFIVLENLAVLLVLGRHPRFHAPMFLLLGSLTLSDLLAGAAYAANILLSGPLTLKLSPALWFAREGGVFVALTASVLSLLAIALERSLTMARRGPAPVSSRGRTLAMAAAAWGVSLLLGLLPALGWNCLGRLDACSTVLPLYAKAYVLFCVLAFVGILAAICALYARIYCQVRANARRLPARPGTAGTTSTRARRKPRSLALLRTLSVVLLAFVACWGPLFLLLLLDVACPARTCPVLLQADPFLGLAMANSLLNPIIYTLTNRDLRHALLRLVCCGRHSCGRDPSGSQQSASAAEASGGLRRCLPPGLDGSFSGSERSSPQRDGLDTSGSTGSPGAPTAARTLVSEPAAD

EC50 [nM]	SMILES
1000 to 10000	Cc1cc(C2CN(c3cccc(F)c3)C2)cc(C)c1CN1CC(C)(O)C1 [Compound 45, 1-(4-(1-(3-fluorophenyl)azetidin-3-yl)-2,6-dimethylbenzyl)-3-methylazetidin-3-ol]
1 to 10	Cc1cc2c(cc1OCc1c(Cl)cccc1Cl)CCC2N1CC(C)(O)C1 (single isomer, unassigned) [Compound 24b, 1-[5-[(2,6-dichlorophenyl)methoxy]-6-methyl-indan-1-yl]-3-methyl-azetidin-3-ol]
10 to 100	CC1(O)CN(C2CCc3cc(C#Cc4ccccc4F)ccc32)C1 (single isomer, unassigned) [Compound 1b, 1-[5-[2-(2-fluorophenyl)ethynyl]indan-1-yl]-3-methyl-azetidin-3-ol]
1 to 10	Cc1cc(-c2ccc(C3CC3)c(Cl)c2)cc2c1C(N1CC(C)(O)C1)CC2 (single isomer, unassigned) [Compound 10b, 1-[5-(3-chloro-4-cyclopropyl-phenyl)-7-methyl-indan-1-yl]-3-methyl-azetidin-3-ol]
10 to 100	Cc1cc(C2CN(c3c(Cl)cccc3Cl)C2)c(C)cc1CN1CC(C)(O)C1 [Compound 56, 1-(4-(1-(2,6-dichlorophenyl)azetidin-3-yl)-2,5-dimethylbenzyl)-3-methylazetidin-3-ol]
10 to 100	Cc1c(-c2ccc(C3CC3)c(Cl)c2)cc2c(c1C)C(N1CC(C)(O)C1)CC2 (single isomer, unassigned) [Compound 27b, 1-(5-(3-chloro-4-cyclopropylphenyl)-6,7-dimethyl-2,3-dihydro-1H-inden-1-yl)-3-methylazetidin-3-ol]
10 to 100	Cc1cc(C2CN(c3c(Cl)cccc3Cl)C2)cc(C)c1CN1CC(C)(O)C1 [Compound 35, 1-[[4-[1-(2,6-dichlorophenyl)azetidin-3-yl]-2,6-dimethyl-phenyl]methyl]-3-methyl-azetidin-3-ol]
10 to 100	Cc1cc(C#Cc2cccc(F)c2)cc2c1C(N1CC(C)(O)C1)CC2 (single isomer, unassigned) [Compound 13a, 1-[5-[2-(3-fluorophenyl)ethynyl]-7-methyl-indan-1-yl]-3-methyl-azetidin-3-ol]
10 to 100	CC1(O)CN(C2CCc3cc(OCc4c(Cl)cccc4Cl)ccc32)C1 (single isomer, unassigned) [Compound 3b, 1-(5-((2,6-dichlorobenzyl)oxy)-2,3-dihydro-1H-inden-1-yl)-3-methylazetidin-3-ol]
100 to 1000	Cc1cc(C2CN(c3c(Cl)cccc3Cl)C2)cc(C)c1CN1CC(O)(CF)C1 [Compound 39, 1-(4-(1-(2,6-dichlorophenyl)azetidin-3-yl)-2,6-dimethylbenzyl)-3-(fluoromethyl) azetidin-3-ol]
10 to 100	Cc1cc(CN2CC(C)(O)C2)cc(C)c1C1CN(c2c(Cl)cccc2Cl)C1 [Compound 57, 1-(4-(1-(2,6-dichlorophenyl)azetidin-3-yl)-3,5-dimethylbenzyl)-3-methylazetidin-3-ol]
10 to 100	CC1(O)CN(C2CCc3cc(C#Cc4ccccc4F)ccc32)C1 (single isomer, unassigned) [Compound 1a, 1-[5-[2-(2-fluorophenyl)ethynyl]indan-1-yl]-3-methyl-azetidin-3-ol]
10 to 100	Cc1cc2c(cc1C#Cc1cccc(F)c1)CCC2N1CC(C)(O)C1 (single isomer, unassigned) [Compound 22a, 1-[5-[2-(3-fluorophenyl)ethynyl]-6-methyl-indan-1-yl]-3-methyl-azetidin-3-ol]
1 to 10	Cc1cc2c(c(C)c1-c1ccc(C3CC3)c(Cl)c1)CCC2N1CC(C)(O)C1 (single isomer, unassigned) [Compound 25a, 1-(5-(3-chloro-4-cyclopropylphenyl)-4,6-dimethyl-2,3-dihydro-1H-inden-1-yl)-3-methylazetidin-3-ol]
10 to 100	Cc1cc2c(cc1C#Cc1cccc(F)c1)CCC2N1CC(C)(O)C1 (single isomer, unassigned) [Compound 22b, 1-[5-[2-(3-fluorophenyl)ethynyl]-6-methyl-indan-1-yl]-3-methyl-azetidin-3-ol]
10 to 100	CC1(O)CN(Cc2ccc(C3CN(c4c(Cl)cccc4Cl)C3)cc2)C1 [Compound 31, 1-(4-(1-(2,6-dichlorophenyl)azetidin-3-yl)benzyl)-3-methylazetidin-3-ol]
10 to 100	Cc1c(OCc2c(Cl)cccc2Cl)ccc2c1CCC2NCC(C)(C)O (single isomer, unassigned) [Compound 20a, 1-((5-((2,6-dichlorobenzyl)oxy)-4-methyl-2,3-dihydro-1H-inden-1-yl)amino)-2-methylpropan-2-ol]
1000 to 10000	Cc1cc(C2CN(c3ccccc3F)C2)cc(C)c1CN1CC(C)(O)C1 [Compound 44, 1-(4-(1-(2-fluorophenyl)azetidin-3-yl)-2,6-dimethylbenzyl)-3-methylazetidin-3-ol]
100 to 1000	CC1(O)CN(Cc2ccc(C#Cc3c(F)cccc3F)cc2)C1 [Compound 28, 1-(4-((2,6-difluoro-phenyl)ethynyl)benzyl)-3-methylazetidin-3-ol]
100 to 1000	CCC1(O)CN(Cc2c(C)cc(C3CN(c4c(Cl)cccc4Cl)C3)cc2C)C1 [Compound 38, 1-(4-(1-(2,6-dichlorophenyl)azetidin-3-yl)-2,6-dimethylbenzyl)-3-ethylazetidin-3-ol]
10 to 100	Cc1cc(C2CN(c3c(Cl)cccc3Cl)C2)cc(C2CC2)c1CN1CC(C)(O)C1 [Compound 54, 1-(2-cyclopropyl-4-(1-(2,6-dichlorophenyl)azetidin-3-yl)-6-methylbenzyl)-3-methylazetidin-3-ol]
100 to 1000	Cc1c(OCc2c(Cl)cccc2Cl)ccc2c1CCC2NCC(C)(C)O (single isomer, unassigned) [Compound 20b, 1-((5-((2,6-dichlorobenzyl)oxy)-4-methyl-2,3-dihydro-1H-inden-1-yl)amino)-2-methylpropan-2-ol]
100 to 1000	CC1(O)CN(Cc2ccc(C#Cc3cccc(F)c3)cc2)C1 [Compound 29, 1-(4-((3-fluorophenyl)-ethynyl)benzyl)-3-methylazetidin-3-ol]
1000 to 10000	CC(C)c1cc(C2CN(c3c(Cl)cccc3Cl)C2)cc(C(C)C)c1CN1CC(C)(O)C1 [Compound 53, 1-(4-(1-(2,6-dichlorophenyl)azetidin-3-yl)-2,6-diisopropylbenzyl)-3-methylazetidin-3-ol]
10 to 100	Cc1cc(C2CN(c3c(Cl)cccc3Cl)C2)cc(F)c1CN1CC(C)(O)C1 [Compound 48, 1-(4-(1-(2,6-dichlorophenyl)azetidin-3-yl)-2-fluoro-6-methylbenzyl)-3-methylazetidin-3-ol]
1000 to 10000	CC1(O)CCN(C2CCc3cc(C4CN(c5c(Cl)cccc5Cl)C4)ccc32)CC1 (stereo not drawn) [Compound 8, 1-(5-(1-(2,6-dichlorophenyl)azetidin-3-yl)-2,3-dihydro-1H-inden-1-yl)-4-methyl-piperidin-4-ol]
10 to 100	CC1(O)CN(Cc2ccc(C3CN(c4c(Cl)cccc4Cl)C3)cc2C2CC2)C1 [Compound 50, 1-(2-cyclopropyl-4-(1-(2,6-dichlorophenyl)azetidin-3-yl)benzyl)-3-methylazetidin-3-ol]
